Measured values as given in patent publication US20240156817A1, “TREATMENTS FOR PAIN” (Sevenless Therapeutics Limited, priority 2021, published 2024).

How the values were obtained:
[1] = system: Nerve Growth Factor (NGF) stimulated phospho-ERK1/2 activation in PC-12 cells; assay: Inhibition of NGF stimulated pERK1/2 activation in the PC-12 cell line (HTRF), alone and combined with anti-NGF; assay type: cell-based, rat
Method: Homogeneous Time-Resolved Fluorescence (HTRF) assay:
Reagents from the HTRF commercial kit (Cisbio) were prepared according to the manufacturer's instructions.
PC-12 cells were isolated from routine cellular culture and plated at an appropriate cell density in 384-well plates (typically 25,000 cells per well) for 24 hours under serum-starved conditions. […] Following the 30-minute compound pre-incubation, PC-12 cells were treated with NGF (titrations of NGF from 250 ng/mL to 10 ng/mL were tested), and subsequently incubated for a 5-minute period (37° C./5% CO2). […] A 2-hour incubation at room temperature was performed prior to fluorescence signal determination using a microplate reader (PHERAstar FSX, BMG Labtech).
Percentage inhibition values were calculated per compound concentration by normalising the sample data to the high and low controls used within each plate (+/−25 ng/mLNGF respectively). […]
PC-12 cells were isolated from routine cellular culture and plated at an appropriate cell density (typically 25,000 cells per well) in 384-well plates for 24 hours under serum-starved conditions. […] A 2-hour incubation at room temperature was performed prior to fluorescence signal being measured in a microplate reader (PHERAstar FSX, BMG Labtech). […]

[2] = system: pain models (knee osteoarthritis pain, arthritic joint, auto-immune arthritis); conditions: rats as printed; cited papers say mouse; cited from earlier work
[3] = system: CFA-(Complete Freunds Adjuvant) induced hypersensitivity; assay: CFA-induced hypersensitivity using weight-bearing in the C57BI6 mouse; assay type: in vivo
Method: On 3 days before CFA dose: habituation to WB apparatus, baseline readings are taken once. 24 h before dosing: intraplantar injection of 20 μl of CFA 1.5 mg/ml to the left hind paw. 1 h before dosing: post-CFA readings are taken for WB. […] Naive animals distribute their body weight equally between the two hind paws. However, when a painful insult is given to one hindpaw (i.e., sciatic nerve constriction or CFA intraplantar injection), the weight is re-distributed so that less weight is put on the affected paw (with a decrease in weight bearing on the injured paw). Animals were placed in the incapacitance tester (Linton Instruments, UK) with the hind paws on separate sensors. The average forces exerted by the left and the right hindlimb were recorded over 2 s. Weight-bearing readings were taken for both left and right hind paws. The ratio ipsilateral/contralateral was calculated and expressed in % (mean±s.e.m.). Statistics: Two-Way RM Mixed model (treatment×repeated factor: time) (InVivoStat v3.7.0.0)

Tanezumab: an anti-NGF antibody, pain drug candidate
efficacy ([1]; Tanezumab at a concentration of 50 nM): 90%
efficacy ([1]; tanezumab at a concentration of 200 nM): 100%
dose at which efficacy is shown (scientific literature) [2]: 10 mg/kg
weight-bearing, ratio ipsilateral/contralateral (mean) ([3]; Tanezumab 3 mg/kg, DRUG TREATED 0.5 h (approx)): 82.54%
weight-bearing, ratio ipsilateral/contralateral (mean) ([3]; Tanezumab 3 mg/kg, DRUG TREATED 8.5 h (approx)): 94.11%
weight-bearing, ratio ipsilateral/contralateral (mean) ([3]; Tanezumab 3 mg/kg, DRUG TREATED 24.5 h (approx)): 89.88%
weight-bearing, ratio ipsilateral/contralateral (mean) ([3]; Tanezumab 3 mg/kg, DRUG TREATED 32.5 h (approx)): 84.25%
weight-bearing, ratio ipsilateral/contralateral (mean) ([3]; combination study, Tanezumab 3 mg/kg i.p. alone, DRUG TREATED (d2 PM)): 99.84%
